Assays:
[1] = target: T1, CYP1A2 (Homo sapiens, UniProt P05177); test: In vitro CYP phenotyping (M17 formation from [14C]pomalidomide); format: in vitro ADME
T1 construct: purchased Cypex Ltd (Scotland, UK)
T1 sequence (P05177 1-516): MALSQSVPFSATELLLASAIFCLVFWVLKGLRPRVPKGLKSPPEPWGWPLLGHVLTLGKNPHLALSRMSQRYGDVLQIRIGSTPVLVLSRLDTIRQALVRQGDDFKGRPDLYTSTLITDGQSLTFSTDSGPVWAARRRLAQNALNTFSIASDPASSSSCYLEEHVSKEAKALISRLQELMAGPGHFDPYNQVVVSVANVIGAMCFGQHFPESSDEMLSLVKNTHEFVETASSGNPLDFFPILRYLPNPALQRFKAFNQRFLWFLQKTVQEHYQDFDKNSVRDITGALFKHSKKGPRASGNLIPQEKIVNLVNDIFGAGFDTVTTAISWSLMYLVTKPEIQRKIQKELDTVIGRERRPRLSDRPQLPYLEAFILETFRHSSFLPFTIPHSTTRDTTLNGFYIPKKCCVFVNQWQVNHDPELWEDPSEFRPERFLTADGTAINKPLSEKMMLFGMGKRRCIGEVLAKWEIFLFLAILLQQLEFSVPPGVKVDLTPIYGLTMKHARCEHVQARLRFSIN
Protocol: (§1) The CYP enzymes responsible for the formation of the hydroxy pomalidomide metabolites were investigated using 10 recombinant human CYP (rCYP) enzymes (CYP1A2, CYP2A6, CYP2B6, CYP2C8, CYP2C9, CYP2C19, CYP2D6, CYP2E1, CYP3A4 and CYP3A5) at 100 pmol/mL. Incubations were prepared using [^14C]pomalidomide (1 μM) in 0.1 M potassium phosphate buffer (pH 7.4) with 4 mM MgCl2, pre-incubated for 5 min at 37 °C. Reactions were initiated by the addition of 1 mM NADPH and continued for 30 or 60 min. Reactions were quenched with two volumes of ice-cold 0.1 % formic acid in acetonitrile containing [^13C5]pomalidomide as internal standard. The samples were mixed and centrifuged, and a subsample of the supernatant evaporated to dryness. The resulting pellet was reconstituted in 0.1 % formic acid in water and acetonitrile (4:1, v/v) and analyzed using HPLC with radiochromatography and/or LC–MS/MS. The rate of formation of the notable human metabolite M17 was calculated and scaled to human in vivo situation using relative abundance method.

[2] = target: T2, CYP2C19 (Homo sapiens, UniProt P33261); test: as above; format: in vitro ADME
T2 construct: purchased Cypex Ltd (Scotland, UK)
T2 sequence (P33261 whole entry): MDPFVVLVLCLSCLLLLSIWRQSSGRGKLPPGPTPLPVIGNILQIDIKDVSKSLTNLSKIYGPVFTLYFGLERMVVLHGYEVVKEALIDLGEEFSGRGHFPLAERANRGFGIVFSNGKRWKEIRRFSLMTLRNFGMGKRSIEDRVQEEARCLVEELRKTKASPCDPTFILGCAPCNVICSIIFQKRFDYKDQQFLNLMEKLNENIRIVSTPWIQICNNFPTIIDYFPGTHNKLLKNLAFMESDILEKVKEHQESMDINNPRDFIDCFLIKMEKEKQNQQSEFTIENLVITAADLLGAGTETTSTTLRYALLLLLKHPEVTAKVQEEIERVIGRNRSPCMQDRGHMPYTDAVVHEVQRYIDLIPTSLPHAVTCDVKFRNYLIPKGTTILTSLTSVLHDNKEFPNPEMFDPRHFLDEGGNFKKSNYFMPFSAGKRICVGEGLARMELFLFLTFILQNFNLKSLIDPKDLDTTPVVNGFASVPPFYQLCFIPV
Protocol: as §1

[3] = target: T3, CYP2D6 (Homo sapiens, UniProt P10635); test: as above; format: in vitro ADME
T3 construct: purchased Cypex Ltd (Scotland, UK)
T3 sequence (P10635 whole entry): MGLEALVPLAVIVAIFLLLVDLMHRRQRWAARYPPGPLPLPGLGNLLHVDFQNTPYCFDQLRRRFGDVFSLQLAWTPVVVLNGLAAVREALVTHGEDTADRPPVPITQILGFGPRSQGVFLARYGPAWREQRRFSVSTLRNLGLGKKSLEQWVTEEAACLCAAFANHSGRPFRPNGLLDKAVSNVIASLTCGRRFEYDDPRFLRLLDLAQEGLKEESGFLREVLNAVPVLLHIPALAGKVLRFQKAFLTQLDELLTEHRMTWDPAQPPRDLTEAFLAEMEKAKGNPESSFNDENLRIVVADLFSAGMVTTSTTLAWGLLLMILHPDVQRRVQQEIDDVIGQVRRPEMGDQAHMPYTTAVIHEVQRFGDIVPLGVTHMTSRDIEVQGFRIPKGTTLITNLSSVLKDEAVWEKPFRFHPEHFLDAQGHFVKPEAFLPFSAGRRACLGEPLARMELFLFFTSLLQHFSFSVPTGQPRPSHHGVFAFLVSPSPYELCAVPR
Protocol: as §1

[4] = target: T4, CYP3A4 (Homo sapiens, UniProt P08684); test: as above; format: in vitro ADME
T4 construct: purchased Cypex Ltd (Scotland, UK)
T4 sequence (P08684 whole entry): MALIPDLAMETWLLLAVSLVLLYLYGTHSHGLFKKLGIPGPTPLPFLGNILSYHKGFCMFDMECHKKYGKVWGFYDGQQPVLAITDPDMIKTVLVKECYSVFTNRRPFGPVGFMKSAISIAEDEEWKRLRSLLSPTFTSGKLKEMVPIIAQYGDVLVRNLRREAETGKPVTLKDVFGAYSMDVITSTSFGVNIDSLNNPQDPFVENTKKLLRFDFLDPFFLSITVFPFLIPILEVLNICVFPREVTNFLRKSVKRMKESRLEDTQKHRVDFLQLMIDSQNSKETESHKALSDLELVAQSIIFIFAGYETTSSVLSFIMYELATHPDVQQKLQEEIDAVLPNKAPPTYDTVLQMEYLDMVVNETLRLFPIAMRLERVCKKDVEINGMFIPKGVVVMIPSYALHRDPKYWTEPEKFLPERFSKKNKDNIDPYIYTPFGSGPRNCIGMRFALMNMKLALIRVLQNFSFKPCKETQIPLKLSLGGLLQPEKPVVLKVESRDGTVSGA
Protocol: as §1

[5] = tested on: PBMC TNF-α production; test: Inhibition of TNF-α production by LPS-stimulated human PBMC (1-day culture); format: cell-based; details: 24 h
Protocol: Metabolites and hydrolysis products of pomalidomide were tested for pharmacological activity in the following three assay systems: (1) inhibition of MM cell proliferation, (2) enhancement of primary human T cell IL-2 production and (3) inhibition of TNF-α production by lipopolysaccharide (LPS)-stimulated human peripheral blood mononuclear cells (PBMC). For all three assay types, compounds were dissolved in 100 % dimethyl sulfoxide (DMSO) and diluted into complete cell culture medium, consisting of Roswell Park Memorial Institute (RPMI)-1640 plus penicillin, streptomycin and L-glutamine (Mediatech, Manassas, VA). The MM cell proliferation cell culture medium contained 10 % fetal bovine serum, while the primary human cell cultures contained 10 % human AB serum (Invitrogen, Brown Deer, WI). The final DMSO concentration in the cell culture media was 0.25 %.
The human MM cell line OPM-2 was obtained from DSMZ (Braunschweig, Germany), and human MM cell lines U266 B1 and NCI-H929 were obtained from ATCC (Manassas, VA). Inhibition of MM cell proliferation was assessed by the [^3H]-thymidine incorporation assay in a 3-day culture in the presence of compounds in complete medium, as previously described. Primary human T cells were isolated from PBMC by negative selection using the RosetteSep T Cell Enrichment Cocktail (STEMCELL Technologies, Tukwila, WA) according to the manufacturer’s procedures. Costimulation of T cell IL-2 production was measured in a 2-day culture of primary human T cells isolated from healthy donors stimulated with anti-CD3 antibody in the presence of compounds, as previously described. Inhibition of TNF-α production by LPS-stimulated human PBMC was measured in a 1-day culture in the presence of compound, as previously described.

| Compound | rate of M17 formation ([1]; rCYP1A2, [14C]pomalidomide 1 μM, 1-h incubation, based on peak area ratios, estimated) [pmol/min/pmol P450] | rate of M17 formation ([2]; rCYP2C19, [14C]pomalidomide 1 μM, 1-h incubation, based on peak area ratios, estimated) [pmol/min/pmol P450] | rate of M17 formation ([3]; rCYP2D6, [14C]pomalidomide 1 μM, 1-h incubation, based on peak area ratios, estimated) [pmol/min/pmol P450] | rate of M17 formation ([4]; rCYP3A4, [14C]pomalidomide 1 μM, 1-h incubation, based on peak area ratios, estimated) [pmol/min/pmol P450] | IC50 [5] [nM] | relative contribution of isozyme to the hepatic metabolism of pomalidomide ([1]; CYP1A2, scaled by relative abundance in human liver) [%] | relative contribution of isozyme to the hepatic metabolism of pomalidomide ([2]; CYP2C19, scaled by relative abundance in human liver) [%] | relative contribution of isozyme to the hepatic metabolism of pomalidomide ([3]; CYP2D6, scaled by relative abundance in human liver) [%] | relative contribution of isozyme to the hepatic metabolism of pomalidomide ([4]; CYP3A4, scaled by relative abundance in human liver) [%] |
| --- | --- | --- | --- | --- | --- | --- | --- | --- | --- |
| Nc1c(O)ccc2c1C(=O)N(C1CCC(=O)NC1=O)C2=O (stereo not shown) [Metabolite M17, 5-hydroxy pomalidomide] | 0.0027 | 0.0024 | 0.0011 | 0.0008 | > 10000 | – | – | – | – |
| Nc1cccc2c1C(=O)N(C1CCC(=O)NC1=O)C2=O (racemic) [Pomalidomide, (RS)-4-amino-2-(2,6-dioxo-piperidin-3-yl)-isoindoline-1,3-dione] | – | – | – | – | 3.1 | 54 | 11 | 4 | 30 |
